Usually Emax stands for the size of the effect at its maximum, as opposed to the concentration needed. As usually defined, the EC50 is the concentration needed to bring the measured effect to its halfway point.

The structures appear in SMILES notation.

For this assay, the target named is T1, mAChR M1 (Homo sapiens, UniProt P11229).
T1 construct: expressed in transfected cells; host or cells: CHO-K1
T1 sequence (P11229 1-460): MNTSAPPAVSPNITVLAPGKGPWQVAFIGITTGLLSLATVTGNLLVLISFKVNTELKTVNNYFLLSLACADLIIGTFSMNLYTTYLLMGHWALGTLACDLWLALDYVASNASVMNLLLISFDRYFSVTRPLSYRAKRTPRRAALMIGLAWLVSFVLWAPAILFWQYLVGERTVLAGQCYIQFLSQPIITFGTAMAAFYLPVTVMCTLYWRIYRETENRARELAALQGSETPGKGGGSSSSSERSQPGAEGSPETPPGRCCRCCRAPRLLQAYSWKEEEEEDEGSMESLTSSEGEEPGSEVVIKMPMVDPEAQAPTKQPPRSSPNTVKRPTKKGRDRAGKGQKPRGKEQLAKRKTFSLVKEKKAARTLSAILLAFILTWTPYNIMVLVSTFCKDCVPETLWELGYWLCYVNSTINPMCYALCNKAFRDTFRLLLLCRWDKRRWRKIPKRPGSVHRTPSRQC
As to the kind of experiment: mAChR M1 cell-based functional assay (calcium mobilization, potentiation of EC20 acetylcholine response in CHO-K1 cells). Particulars: for Emax: CHO-K1, maximal response of curve fit or response at 30 μM test compound, as % of response to an about EC80 ACh concentration, read-out: Emax (% ACh maximum at 30 μM); for EC50: positive allosteric modulation of EC20 acetylcholine response, >10,000 estimated where no plateau in the curve. The source says:
Chinese hamster ovary (CHO-K1) cells stably expressing rat (r)M1 were purchased from the American Type Culture Collection and cultured according to their indicated protocol. CHO cells stably expressing human (h)M2, hM3, and hM5 were described previously (Levey, A. I., et al., J. Neurosci. 1991, 11, 3218-3226.); hM1 and hM4 cDNAs were purchased from Missouri S&T cDNA Resource; rM4 cDNA was provided by T. I. Bonner (National Institutes of Health, Bethesda, Md.). rM2 and rM3 were cloned from a rat brain cDNA library and sequence verified. hM1, rM2, rM3, hM4, and rM4 cDNAs were used to stably transfect CHO-K1 cells purchased from the American Type Culture Collection using Lipofectamine-2000. To make stable rM2, hM2, hM4, and rM4 cell lines for use in calcium mobilization assays, these cells also were stably transfected with a chimeric G-protein (Gqi5) (provided by B. R. Conklin, University of California, San Francisco) using Lipofectamine 2000. rM1, hM1, rM3, hM3, rM5, and hM5 cells were grown in Ham's F-12 medium containing 10% heat-inactivated fetal bovine serum (FBS), 20 mM HEPES, and 50 μg/mL G418 sulfate. rM2-Gqi5, hM2Gqi5, and hM4Gqi5 cells were grown in the same medium also containing 500 μg/mL Hygromycin B. Stable rM4Gqi5 cells were grown in DMEM containing 10% heat-inactivated FBS, 20 mM HEPES, 400 μg/mL G418 sulfate, and 500 μg/mL Hygromycin B.
For high throughput measurement of agonist-evoked increases in intracellular calcium, CHO-K1 cells stably expressing muscarinic receptors were plated in growth medium lacking G418 and hygromycin at 15,000 cells/20 μL/well in Greiner 384-well black-walled, tissue culture (TC)-treated, clear-bottom plates (VWR). Cells were incubated overnight at 37° C. and 5% CO2. The next day, cells were washed using an ELX 405 (BioTek) with four washes (80 μL) of assay buffer then […], 20 μL of Fluo-4/acetoxymethyl ester (Invitrogen, Carlsbad, Calif.) prepared as a 2.3 mM stock in DMSO and mixed in a 1:1 ratio with 10% (w/v) Pluronic F-127 and diluted in assay buffer was added to the wells and the cell plates were incubated for […] at 37° C. and 5% CO2. Dye was removed by washing with the ELX 405 (four 80 μL washes of assay buffer) then aspirated to 20 μL. Compound master plates were formatted in an 11 point CRC format (1:3 dilutions) in 100% DMSO with a starting concentration of 10 mM using the BRAVO liquid handler (Agilent). Test compound CRCs were then transferred to daughter plates ([…]) using the Echo acoustic plate reformatter (Labcyte, Sunnyvale, Calif.) and then diluted into assay buffer (40 μL) to a 2× stock using a Thermo Fisher Combi (Thermo Fisher Scientific, Waltham, Mass.).
Calcium flux was measured using the Functional Drug Screening System (FDSS) 6000 (Hamamatsu Corporation, Tokyo, Japan) as an increase in the fluorescent static ratio. Compounds were applied to cells (20 μL, 2×) using the automated system of the FDSS 6000 at 4 s into the 300 s protocol and the data were collected at 1 Hz. At 144 s into the 300 s protocol, 10 μL of an EC20 concentration of the muscarinic receptor agonist acetylcholine was added (5×), followed by the addition of 12 μL an EC80 concentration of acetylcholine at the 230 s time point (5×). Agonist activity was analyzed as a concentration-dependent increase in calcium mobilization upon compound addition. Positive allosteric modulator activity was analyzed as a concentration-dependent increase in the EC20 acetylcholine response. Antagonist activity was analyzed as a concentration-dependent decrease in the EC80 acetylcholine response. Concentration-response curves were generated using a four-parameter logistical equation in XLFit curve fitting software (IDBS, Bridgewater, N.J.) for Excel (Microsoft, Redmond, Wash.) or Prism (GraphPad Software, Inc., San Diego, Calif.).
The calcium mobilization assay was also used to determine “efficacy”. […]

For the molecule `Cn1cc(-c2ccc(Cn3cc(S(C)(=O)=O)c4ccccc43)c(F)c2)cn1` [Compound B7], the Emax is 64% and the EC50 is 3.9 µM.

On to `Cn1cc(-c2ccc(CN3c4ccccc4CS3(=O)=O)c(F)c2)cn1` [Compound B24, 1-(2-fluoro-4-(1-methyl-1H-pyrazol-4-yl)benzyl)-1,3-dihydrobenzo[c]isothiazole 2,2-dioxide], for which the Emax was found to be 39% and the EC50 is more than 10 µM.

With `Cn1cc(-c2ccc(CN3CC[S+]([O-])c4ccccc43)c(F)c2)cn1` (centres unmarked) [Compound B18], the Emax was determined as 31% and the EC50 is more than 10 µM.

On to `Cn1cc(-c2ccc(CNc3ccccc3[S+](C)[O-])c(F)c2)cn1` (centres unmarked) [Compound B17], for which the Emax is 39% and the EC50 is more than 10 µM.

With `Cn1cc(-c2ccc(Cn3cc(S(=O)(=O)CCNC(=O)c4ccncc4)c4c(F)cc(F)cc43)c(F)c2)cn1` [Compound B31], the Emax turned out to be 30% and the EC50 is more than 10 µM.

Regarding `Cn1cc(-c2ccc(CN3C(=O)OCc4ccccc43)c(F)c2)cn1` [Compound B3, 1-(2-fluoro-4-(1-methyl-1H-pyrazol-4-yl)benzyl)-1H-benzo[d][1,3]oxazin-2(4H)-one], the Emax is 61% and the EC50 was 3.1 µM.

With `COc1cc2ccccc2n(Cc2ccc(-c3cnn(C)c3)cc2F)c1=O` [Compound B1, 1-(2-fluoro-4-(1-methyl-1H-pyrazol-4-yl)benzyl)-3-methoxyquinolin-2(1H)-one], the Emax amounted to 31% and the EC50 was 2.4 µM.

As to `Cn1cc(-c2ccc(Cn3cc(S(=O)(=O)CCNC(=O)c4cccnn4)c4c(F)cc(F)cc43)c(F)c2)cn1` [Compound B10], the Emax was 36% and the EC50 was 5.6 µM.

On to `Cn1cc(-c2ccc(CN3C(=O)CCc4ccccc43)c(F)c2)cn1` [Compound B22], for which the Emax is 44% and the EC50 was more than 10 µM.

In the case of `Cn1cc(-c2ccc(Cn3c(=O)sc4ccccc43)c(F)c2)cn1` [Compound B14], the Emax is 45% and the EC50 is more than 10 µM.

For the molecule `Cn1cc(-c2ccc(Cn3cc(S(=O)(=O)CCNC(=O)c4ccn[nH]4)c4c(F)cc(F)cc43)c(F)c2)cn1` [Compound B12], the Emax worked out at 31% and the EC50 was 8.1 µM.

Consider `Cc1cc(NC(=O)c2cn(Cc3ccc(-c4cnn(C)c4)cc3F)c3ccccc23)no1` [Compound B8], for which the Emax came out at 43% and the EC50 was 5 µM.

Regarding `Cn1cc(-c2ccc(Cn3cc(S(=O)(=O)CCNC(=O)c4cccc(F)c4)c4c(F)cc(F)cc43)c(F)c2)cn1` [Compound B30], the Emax came out at 35% and the EC50 is more than 10 µM.

For `Cn1cc(-c2ccc(Cn3nc4ccccn4c3=O)c(F)c2)cn1` [Compound B13], the Emax came to 29% and the EC50 was 9.4 µM.

Take `Cn1cc(-c2ccc(CN3CC(C(=O)O)c4ccccc43)c(F)c2)cn1` (centres unmarked) [Compound B25]: the Emax was 52% and the EC50 was more than 10 µM.

`Cn1cc(-c2ccc(CN3Cc4ccccc4C3)c(F)c2)cn1` [Compound B5]: the Emax turned out to be 38% and the EC50 is 3.5 µM.

`Cn1cc(-c2ccc(CN3C(=O)CS(=O)(=O)c4ccccc43)c(F)c2)cn1` [Compound B21, 4-(2-fluoro-4-(1-methyl-1H-pyrazol-4-yl)benzyl)-2H-benzo[b][1,4]thiazin-3(4H)-one 1,1-dioxide]: the Emax is 36% and the EC50 was more than 10 µM.

In the case of `Cn1cc(-c2ccc(CN3C(=O)C[S+]([O-])c4ccccc43)c(F)c2)cn1` (centres unmarked) [Compound B20, 4-(2-fluoro-4-(1-methyl-1H-pyrazol-4-yl)benzyl)-2H-benzo[b][1,4]thiazin-3(4H)-one 1-oxide], the Emax came out at 41% and the EC50 is more than 10 µM.

Consider `Cn1cc(-c2ccc(Cn3cc(S(=O)(=O)CCNC(=O)c4cnccn4)c4c(F)cc(F)cc43)c(F)c2)cn1` [Compound B4, N-(2-((4,6-difluoro-1-(2-fluoro-4-(1-methyl-1H-pyrazol-4-yl)benzyl)-1H-indol-3-yl)sulfonyl)ethyl)pyrazine-2-carboxamide], for which the Emax is 52% and the EC50 was 3.4 µM.

For `Cn1cc(-c2ccc(CN3C(=O)NCc4ccccc43)c(F)c2)cn1` [Compound B19], the Emax came to 46% and the EC50 was more than 10 µM.

For the molecule `Cn1cc(-c2ccc(Cn3cc(S(=O)(=O)CCNC(=O)c4ccno4)c4c(F)cc(F)cc43)c(F)c2)cn1` [Compound B2], the Emax turned out to be 27% and the EC50 was 2.8 µM.

For the molecule `Cn1cc(-c2ccc(CN3C(=O)CSc4ccccc43)c(F)c2)cn1` [Compound B16, 4-(2-fluoro-4-(1-methyl-1H-pyrazol-4-yl)benzyl)-2H-benzo[b][1,4]thiazin-3(4H)-one], the Emax was 32% and the concentration giving a half-maximal response (EC50) was more than 10 µM.

Take `Cn1cc(-c2ccc(CN3Cc4ccccc4C3C(=O)O)c(F)c2)cn1` (centres unmarked) [Compound B26]: the Emax amounted to 61% and the EC50 was more than 10 µM.

For `Cn1cc(-c2ccc(Cn3cc(S(=O)(=O)CCNC(=O)c4cocn4)c4c(F)cc(F)cc43)c(F)c2)cn1` [Compound B32], the Emax is 57% and the EC50 was more than 10 µM.

`Cn1cc(-c2ccc(CN3C(=O)COc4ccccc43)c(F)c2)cn1` [Compound B23]: the Emax is 44% and the EC50 is more than 10 µM.

Turning to `Cn1cc(-c2ccc(Cn3cc(S(=O)(=O)CCNC(=O)c4ccccn4)c4c(F)cc(F)cc43)c(F)c2)cn1` [Compound B29], the Emax amounted to 34% and the EC50 is more than 10 µM.

In the case of `Cn1cc(-c2ccc(Cn3cc(C(=O)Nc4cccnc4)c4ccccc43)c(F)c2)cn1` [Compound B9, 1-(2-fluoro-4-(1-methyl-1H-pyrazol-4-yl)benzyl)-N-(pyridin-3-yl)-1H-indole-3-carboxamide], the maximum response (Emax) came out at 50% and the concentration giving a half-maximal response (EC50) is 5.4 µM.

As to `Cn1cc(-c2ccc(Cn3cc(C(=O)O)c4ccccc43)c(F)c2)cn1` [Compound B27], the Emax was found to be 48% and the EC50 was more than 10 µM.

Regarding `Cn1cc(-c2ccc(Cn3cc(S(=O)(=O)CCNC(=O)c4ccnnc4)c4c(F)cc(F)cc43)c(F)c2)cn1` [Compound B11], the maximal effect (Emax) was 45% and the EC50 is 7.6 µM.

In the case of `Cn1cc(-c2ccc(Cn3c(=O)ccc4ccccc43)c(F)c2)cn1` [Compound B6], the Emax was found to be 45% and the EC50 was 3.6 µM.

`Cn1cc(-c2ccc(Cn3cc(C(=O)NCCc4ccccn4)c4ccccc43)c(F)c2)cn1` [Compound B28]: the Emax was found to be 35% and the EC50 was more than 10 µM.

These data come from patent publication US9012445B2, “Substituted 4-(1H-pyrazol-4-yl)benzyl analogues as positive allosteric modulators of mAChR M1 receptors” (Vanderbilt University, priority 2012, dated 2015).
